Entries after “also recorded” stand apart in the source; their conditions may differ.
Columns and labels:
HIV-Nef [1] = target: T1, HIV-Nef (Human immunodeficiency virus type 1, UniProt P03406); settings: cited from earlier work; for MHC-I HLA-A2 restoration in HIV-infected primary T cells, side-by-side assays: B9 up to more than 10μM, CMA nanomolar
T1 sequence (P03406 2-206): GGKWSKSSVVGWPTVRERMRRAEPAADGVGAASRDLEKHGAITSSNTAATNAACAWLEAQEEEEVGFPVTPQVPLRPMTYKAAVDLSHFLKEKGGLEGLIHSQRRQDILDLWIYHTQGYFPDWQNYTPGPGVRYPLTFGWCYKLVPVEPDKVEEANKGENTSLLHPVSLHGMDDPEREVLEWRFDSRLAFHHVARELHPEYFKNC

[2] = test system: HIV-1 infected CD4+ T cells; settings: single digit micromolar concentrations; cited from earlier work
[3] = test system: Nef overexpressing HEK293T cells; settings: single digit micromolar concentrations; cited from earlier work
primary CD4+ T cells [4] = experiment: 24 h viability
HIV-Nef [5] = target: T1, HIV-Nef; assay type: cell-based, HIV-1; settings: for restoration of MHC-I levels on infected (GFP+) cells: ΔGPE transduced 48 h then treated 24 h, compared to uninfected (GFP-) cells; for Nef inhibitory potency, in words (relative to parent or comparator) / Nef IC50: 24 h; for Nef IC50: HIV ΔGPE transduced primary CD4+ T cells, upper limit of assay 1000 nM
V-ATPase [6] = target: V-ATPase (Homo sapiens, UniProt P27449); experiment: cell-based; assay type: cell-based; settings: for V-ATPase inhibition (Lysotracker), in words / Lysotracker IC50: 24 h; for Lysotracker IC50: lysosomal neutralization / V-ATPase inhibition
MHC-I HLA-A2 = assay type: cell-based, human; settings: ΔGPEN; treated 24 h
Nef = settings: cited from earlier work
primary CD4+ T cells [7] = experiment: 72 h viability
V-ATPase [8] = settings: cited from earlier work

Sequence of V-ATPase (Homo sapiens, UniProt P27449) (P27449 whole entry, looked up): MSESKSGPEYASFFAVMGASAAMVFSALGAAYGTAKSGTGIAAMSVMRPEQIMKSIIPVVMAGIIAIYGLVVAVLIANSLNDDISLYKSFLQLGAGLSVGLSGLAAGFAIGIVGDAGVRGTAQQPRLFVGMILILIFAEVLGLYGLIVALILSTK

CC[C@H](C)C(=O)O[C@H]1C[C@@H](C)C=C2C=C[C@H](C)[C@H](CC[C@@H]3C[C@@H](O)CC(=O)O3)[C@H]21 [Lovastatin]
MHC-I HLA-A2 restoration in HIV-infected primary T cells, side-by-side assays (HIV-Nef [1]): partially restored
concentration for partial MHC-I restoration, relative to CMA (HIV-Nef [1]): 2,000 fold
surface expression of MHC-1 and CD4 [2]: increases surface expression
surface expression of SERINC5 [3]: increases surface expression

C[C@@H]1C[C@H](C)C[C@H](C)[C@@H](O)CC(=O)O[C@H]([C@@H]2CCC[C@H]2C(=O)O)C/C=C/C=C(/C#N)[C@H](O)[C@@H](C)C1 [S1, borrelidin]
toxicity at 24 h, in words (primary CD4+ T cells [4]): toxic at 24-hrs

C/C=C/[C@H]1O[C@@](O)([C@@H](C)[C@H](O)[C@H](C)[C@H]2OC(=O)/C(OC)=C/C(C)=C/[C@@H](C)[C@@H](O)[C@@H](CC)[C@@H](O)[C@H](C)C/C(C)=C/C=C/[C@@H]2OC)C[C@@H](O[C@H]2C[C@@H](O)[C@H](OC(N)=O)[C@@H](C)O2)[C@@H]1C [compound 1, concanamycin A, reference compound]
restoration of MHC-I levels on infected (GFP+) cells (HIV-Nef [5]): restored MHC-I levels
IC50 (V-ATPase [6]): 1.7 nM
MHC-I surface levels in cells lacking Nef (MHC-I HLA-A2): did not substantially alter MHC-I surface levels
MHC-I HLA-A2 restoration in HIV-infected primary T cells, side-by-side assays (HIV-Nef [1]): near-fully restore
binding between Nef and CMA (Nef): no binding

CO/C1=C\C(C)=C\[C@@H](C)[C@@H](O)[C@@H](C)C/C(C)=C/C=C/[C@H](OC)[C@@H]([C@@H](C)[C@@H](O)[C@H](C)[C@@]2(OC)C[C@@H](O)[C@H](C)[C@@H](C(C)C)O2)OC1=O [compound 8]
Nef inhibitory potency, in words (relative to parent or comparator) (HIV-Nef [5]): decreased potency

CO/C1=C\C(C)=C\[C@@H](C)[C@@H](O)[C@@H](C)C/C(C)=C/C=C/[C@H](OC)[C@@H]([C@@H](C)[C@@H](O)[C@H](C)[C@H]2C[C@@H](O)[C@H](C)[C@@H](C(C)C)O2)OC1=O [compound 9, 19-deoxy Baf A1]
Nef inhibitory potency, in words (relative to parent or comparator) (HIV-Nef [5]): decreased potency

CO/C1=C\C(C)=C\[C@@H](C)[C@@H](O)[C@@H](C)C/C(C)=C/C=C/[C@H](OC)[C@@H]([C@@H](C)[C@@H](O)[C@H](C)[C@H]2C[C@@H](OC)[C@H](C)[C@@H](C(C)C)O2)OC1=O [compound 10]
Nef inhibitory potency, in words (relative to parent or comparator) (HIV-Nef [5]): decreased potency

CO/C1=C\C(C)=C\[C@@H](C)[C@@H](O)[C@@H](C)C/C(C)=C/C=C/[C@H](OC)[C@@H]([C@@H](C)[C@@H](O)[C@H](C)[C@H]2C=C(O)[C@H](C)[C@@H](C(C)C)O2)OC1=O [compound 11]
Nef inhibitory potency, in words (relative to parent or comparator) (HIV-Nef [5]): decreased potency

C=CC(C)C(OC(=O)[C@@H](C)[C@H](O)[C@H](C)[C@H]1OC(=O)/C(OC)=C/C(C)=C/[C@@H](C)[C@@H](O)[C@@H](C)C/C(C)=C/C=C/[C@@H]1OC)C(C)C (stereo partly drawn) [compound 12]
decrease in Nef potency compared to 2 (HIV-Nef [5]; vs Baf A1): 26 fold
V-ATPase inhibition (Lysotracker), in words (V-ATPase [6]): Dramatic reductions
toxicity, in words (primary CD4+ T cells [7]): Dramatic reductions

CCCCC(=O)O[C@@H]1C[C@](O)([C@@H](C)[C@H](O)[C@H](C)[C@H]2OC(=O)/C(OC)=C/C(C)=C/[C@@H](C)[C@@H](O)[C@@H](C)C/C(C)=C/C=C/[C@@H]2OC)O[C@H](C(C)C)[C@H]1C [compound 14]
Nef inhibitory potency, in words (relative to parent or comparator) (HIV-Nef [5]): decreased potency; also recorded: opposite effect

CCCCCCCCC(=O)O[C@@H]1C[C@](O)([C@@H](C)[C@H](O)[C@H](C)[C@H]2OC(=O)/C(OC)=C/C(C)=C/[C@@H](C)[C@@H](O)[C@@H](C)C/C(C)=C/C=C/[C@@H]2OC)O[C@H](C(C)C)[C@H]1C [compound 15]
Nef inhibitory potency, in words (relative to parent or comparator) (HIV-Nef [5]): decreased potency; also recorded: opposite effect

C=C/C=C/C(=O)O[C@@H]1C[C@](O)([C@@H](C)[C@H](O)[C@H](C)[C@H]2OC(=O)/C(OC)=C/C(C)=C/[C@@H](C)[C@@H](O)[C@@H](C)C/C(C)=C/C=C/[C@@H]2OC)O[C@H](C(C)C)[C@H]1C [compound 16]
Nef inhibitory potency, in words (relative to parent or comparator) (HIV-Nef [5]): decreased potency; also recorded: improved potency compared to 14 or 15

CO/C1=C\C(C)=C\[C@@H](C)[C@@H](O)[C@@H](C)C/C(C)=C/C=C/[C@H](OC)[C@@H]([C@@H](C)[C@@H](O)[C@H](C)[C@@]2(O)C[C@@H](O[C@@H]3O[C@@H](C)[C@H](O)[C@@H](O)[C@H]3OC)[C@H](C)[C@@H](C(C)C)O2)OC1=O [compound 18, leucanicidin, reference compound]
toxicity, in words (primary CD4+ T cells [7]): significantly more toxic

C/C=C/C=C/[C@H]1O[C@@](O)([C@@H](C)[C@H](O)[C@H](C)[C@H]2OC(=O)/C(OC)=C/C(C)=C/[C@@H](C)[C@@H](O)[C@@H](C)C/C(C)=C/C=C/[C@@H]2OC)C[C@@H](O[C@H]2C[C@@H](O)[C@H](O)[C@@H](C)O2)[C@@H]1C [compound 19, PC-766B, reference compound]
toxicity, in words (primary CD4+ T cells [7]): significantly more toxic

CO/C1=C\C(C)=C\[C@@H](C)C(=O)[C@@H](C)C/C(C)=C/C=C/[C@H](OC)[C@@H]([C@@H](C)[C@@H](O)[C@H](C)[C@@]2(O)C[C@@H](O)[C@H](C)[C@@H](C(C)C)O2)OC1=O [compound 20]
Nef inhibitory potency, in words (relative to parent or comparator) (HIV-Nef [5]): reduced activity at all concentrations tested
Nef IC50 (HIV-Nef [5]): above the activity threshold
Lysotracker IC50 (V-ATPase [6]): above the activity threshold

CO/C1=C\C(C)=C\[C@@H](C)C(=O)[C@@H](C)C/C(C)=C/C=C/[C@H](OC)[C@@H]([C@@H](C)[C@@H](O)[C@H](C)[C@@]2(O)CC(=O)[C@H](C)[C@@H](C(C)C)O2)OC1=O [compound 21]
Nef IC50 (HIV-Nef [5]): above the activity threshold
Lysotracker IC50 (V-ATPase [6]): above the activity threshold

C/C=C/[C@H]1O[C@@](O)([C@@H](C)[C@H](O)[C@H](C)[C@H]2OC(=O)/C(OC)=C/C(C)=C/[C@@H](C)[C@@H](O)[C@@H](C)[C@@H](O)[C@H](C)C/C(C)=C/C=C/[C@@H]2OC)C[C@@H](O[C@H]2C[C@@H](O)[C@H](OC(N)=O)[C@@H](C)O2)[C@@H]1C [compound 22, concanamycin B, reference compound]
decrease in Nef inhibitory potency compared to CMA (1) (HIV-Nef [5]; vs CMA): ~10 fold
V-ATPase inhibition (Lysotracker), in words (V-ATPase [6]): even greater decrease in V-ATPase inhibitory potency

C/C=C/[C@H]1O[C@@](O)([C@@H](C)[C@H](O)[C@H](C)[C@H]2OC(=O)/C(OC)=C/C(C)=C/[C@@H](C)[C@@H](O)[C@@H](C)[C@@H](OC(C)=O)[C@H](C)C/C(C)=C/C=C/[C@@H]2OC)C[C@@H](O[C@H]2C[C@@H](OC(C)=O)[C@H](OC(N)=O)[C@@H](C)O2)[C@@H]1C [compound 31, 3’,9-diacetyl CMB]
toxicity, in words (primary CD4+ T cells [7]): reducing toxicity

C/C=C/[C@H]1O[C@@](O)([C@@H](C)[C@H](O)[C@H](C)[C@H]2OC(=O)/C(OC)=C/C(C)=C/[C@@H](C)[C@@H](O)[C@@H](CC)[C@@H](OC(C)=O)[C@H](C)C/C(C)=C/C=C/[C@@H]2OC)C[C@@H](O[C@H]2C[C@@H](OC(C)=O)[C@H](OC(N)=O)[C@@H](C)O2)[C@@H]1C [compound 33, 3’,9-diacetyl CMA]
restoration of MHC-I levels on infected (GFP+) cells (HIV-Nef [5]): restored MHC-I levels
MHC-I surface levels in cells lacking Nef (MHC-I HLA-A2): did not substantially alter MHC-I surface levels

C/C=C/[C@H]1O[C@@H]([C@@H](C)[C@H](O)[C@H](C)[C@H]2OC(=O)/C(OC)=C/C(C)=C/[C@@H](C)[C@@H](O)[C@@H](CC)[C@@H](O)[C@H](C)C/C(C)=C/C=C/[C@@H]2OC)C[C@@H](O)[C@@H]1C [compound 38, 21-deoxy CMF]
Nef inhibitory potency, in words (relative to parent or comparator) (HIV-Nef [5]): no change in potency

C/C=C/[C@H]1O[C@@H]([C@@H](C)[C@H](O)[C@H](C)[C@H]2OC(=O)/C(OC)=C/C(C)=C/[C@@H](C)[C@@H](O)[C@@H](CC)[C@@H](O)[C@H](C)C/C(C)=C/C=C/[C@@H]2O)C[C@@H](O)[C@@H]1C [compound 39, 21-deoxy-16-hydroxy CMF]
reduction of Nef inhibitory activity compared to CMF (24) (HIV-Nef [5]; vs CMF): over 200 fold

bafilomycin D [Baf D]
Nef inhibition, in words (HIV-Nef [1]): poor inhibitor
V-ATPase inhibition, in words (V-ATPase [8]): poor inhibitor
